Source: patent US7632971B2, “Method of crystallization of bicalutamide” (Sumitomo Chemical Company, Limited, priority 2004, dated 2009)

Tests used:
[1] = Particle size distribution by laser diffraction (Mastersizer 2000); assay type: physicochemical
Method: In the invention, Dpn is a unit referring to a particle size of crystal, and n is a value covering from 1 to 100. For example, Dp10 is defined as a diameter of the particle where particles are accumulated from the one having a smaller size and reach to the accumulated particle volume of 10%.
Add 1000 mL of water to 5 g of Triton X-100, mix well. Add 0.1 g of bicalutamide and sonicate for 15 minutes, the filter using 0.45 μm membrane filter and use this solution as the dispersant. Rinse the dispersion unit and the measurement instrument with the dispersant and replace it in the instruments with the fresh one, then measure background. After weighing, suspend about 0.05 g of bicalutamide crystals in the 20 ml of dispersant and sonicate for 5 minutes, and make up with the dispersant to 100 mL. Redisperse this suspension with a pipet and pour this sample into the dispersion unit so that an obscuration is 10.0 to 20.0%. After the stabilizing period of 12 minutes, start the measurement under the following condition. Determine 10% diameter, 50% diameter, and 90% diameter according to an integrated distribution curve to be Dp10, Dp50 and Dp90, respectively.
• Instrument model: Laser diffraction particle size analyzer Mastersizer 2000 (Malvern) • Dispersion unit: Hydro2000S • Stirrer speed of dispersion unit: 2300 rpm • Particle Refraction Index of sample: 1.670 Absorption: 0.001 • Dispersant Refraction Index: 1.330 • Analysis model: General purpose • Calculation sensitivity: Enhanced • Particle shape: Irregular • Size range: 0.020-2000.000 μm • Measurement integration period: 12 seconds • Backgroupd integration period: 12 seconds (Specific Surface Area)
With using the above-mentioned laser diffraction particle size distribution analyzer (Mastersizer 2000 (Malvern)), a particle size distribution was measured under the same conditions mentioned above.

[2] = Specific surface area by nitrogen gas absorption (BET equation, COULTER SA3100); assay type: physicochemical
Method: The specific surface area in the invention is defined as a surface area per 1 g of particles, and represented by a value measured by the following method.
A sample is deaerated overnight in a vacuum dryer at 40° C. as a pre-treatment before being subjected to a measurement. The measurement is conducted as follows: a given amount of an absorbing gas (nitrogen gas) is absorbed by a sample, the values of a relative pressure (P/PO) and an absorbed gas volume are determined in each absorption step, and then a specific surface area is calculated according to the BET equation using the values. COULTER™ SA3100™ Series Surface Area and Pore size Analyzer is used as a measurement device. After measuring the sample mentioned above, the specific surface area at around the relative pressure of 0.05 to 0.2 is calculated.
Furthermore, the specific surface area of the crystals obtained by one time milling was measured with the COULTER™ SA3100™ Series Surface Area and Pore size Analyzer mentioned above under the same conditions mentioned above.

[3] = crystals as obtained by crystallization, not milled
[4] = crystals obtained by two times milling (CT-401 ATOMIZER)
[5] = crystals obtained by one time milling (spiral jet-mill 50AS)

SMILES	Dp10 (particle size) [1, 3]	Dp50 (particle size) [1, 3]	Dp90 (particle size) [1, 3]	Dp10 (particle size) [1, 4]	Dp50 (particle size) [1, 4]	Dp90 (particle size) [1, 4]	specific surface area ([2]; crystals obtained by one time milling, relative pressure 0.05 to 0.2)	Dp10 (particle size) [1, 5]	Dp50 (particle size) [1, 5]	Dp90 (particle size) [1, 5]	specific surface area [2, 3]
CC(O)(CS(=O)(=O)c1ccc(F)cc1)C(=O)Nc1ccc(C#N)c(C(F)(F)F)c1 (centres unmarked) [Comparative Example 1, bicalutamide]	45.6 μm	90.7 μm	177.6 μm	3.1 μm	15.9 μm	57.8 μm					
CC(O)(CS(=O)(=O)c1ccc(F)cc1)C(=O)Nc1ccc(C#N)c(C(F)(F)F)c1 (centres unmarked) [bicalutamide]	45.6 μm	90.7 μm	177.6 μm								
CC(O)(CS(=O)(=O)c1ccc(F)cc1)C(=O)Nc1ccc(C#N)c(C(F)(F)F)c1 (centres unmarked) [Example 1, bicalutamide]	5.3 μm	14.5 μm	30.6 μm				1.8 m^2/g	1.8 μm	4.2 μm	10.5 μm	
CC(O)(CS(=O)(=O)c1ccc(F)cc1)C(=O)Nc1ccc(C#N)c(C(F)(F)F)c1 (centres unmarked) [Comparative Example 2, bicalutamide]	39.5 μm	119.6 μm	273.1 μm								0.2 m^2/g
